Laboratory results as given in patent US5411983A, “Certain hyrdoxy-phosphinyl-oxy-phenylmethyl-imidazolium hydroxide inner salts as PAF antagonists” (American Cyanamid Company, priority 1993, dated 1995).
Where a name gives a salt, the structure may show the parent alone. Read-outs that look alike come from different tables or passages of the source.

Target: PAF receptor (Oryctolagus cuniculus, UniProt G1TEI7)
Experiment: Inhibition of PAF induced platelet aggregation in rabbit platelet rich plasma (PRP)
Type: cell-based, rabbit (male New Zealand White)
Set-up: immediately centrifuged at 800 rpm for 10 minutes at room temperature to recover the platelet rich plasma (PRP); endogenous in cells; host or cells: rabbit platelets in platelet rich plasma (male New Zealand White rabbits)
Conditions: rabbit platelet rich plasma
Experimental: Platelet activating factor (PAF) compounds were evaluated as PAF receptor antagonists in vitro by measuring inhibition of PAF induced platelet aggregation. Platelet aggregation was measured by a modification of the method of A. Wissner, et. al., J. Med. Chem., 27, 1174, 1984.
Approximately 120-240 ml of blood were collected by cardiac puncture from unanesthetized male New Zealand White rabbits (Whaley's Summit View Farms, Belvedere, N.J.) with the use of 3.2% sodium citrate anticoagulant (1 part of citrate/10 parts of blood). All syringes and pipets were plastic. The blood was gently mixed and immediately centrifuged at 800 rpm for 10 minutes at room temperature to recover the platelet rich plasma (PRP). Platelet poor plasma (PPP) was prepared by centrifuging PRP at 2800 rpm for 10 minutes at room temperature.
Dilutions (1:3000) Of PRP in Isoton diluent were made and platelet counts were determined on a Coulter Thrombocounter which was standardized with platelet reference standards (Interscience Platelet Control, Portland, Oreg.). PRP platelet counts were adjusted to 500,000 platelets/μl by the addition of PPP.
L-PAF was obtained from Calbiochem. A stock solution of 1-2 E-3M was prepared in 10% ethanol in water and serial working dilutions were made using phosphate buffered saline (PBS). 1-2 E-3M stock solutions of test compounds were prepared in 100% methanol and serially diluted in PBS. All solutions were made up in plastic tubes, stored on ice and protected from heat and light. Solutions were prepared fresh or frozen at -20° C. and used within 48 hours.
Incubation mixtures consisted of 400 μl PRP, 50 μl of PBS diluent or test compound and 50 μl of PAF agonist. More specifically, 400 μl of PRP was stabilized in a cuvette for 1-2 minutes at 37° C. in the aggregometer to achieve a stable baseline, then 50 μl of PBS or test compound, was added and incubated for 5 minutes before addition of the challenge concentration of PAF ([…], as determined from the dose response curve for PAF for that experiment). Aggregation was monitored for 5 minutes. Samples containing test compound or diluent were run simultaneously for comparison. Test compounds were initially evaluated at a screening concentration of 1E-5M. Those producing ≥ 50% inhibition of the magnitude of aggregation were then reevaluated in a dose response fashion (final concentrations 1E-7M to 5E-5M) and IC50 values were determined. Ki values were also calculated in some cases from [formula] where Ki =inhibitory constant
IC50 =molar concentration of test compound which gives 50% inhibition
[PAF]=molar concentration of PAF used as challenges
EC50 =molar concentration of PAF which gives 50% of maximal aggregation.
The recording equipment consisted of single or dual channel Chronolog aggregometers connected to dual channel 10 MV full scale deflection Omniscribe chart recorders (Houston Instruments). […] The bead suspension was used to set the 0% light transmission mark and clear water was used to set the 100% light transmission mark. These limits defined a full scale deflection. The aggregation traces were analyzed by a digitizing method (C. Kohler and B. Zoltan, J. Pharm. Methods, 12, 113, 1984) with x, y coordinate data stored in a computer file. A suitable program computed parameters of interest such as the magnitude of aggregation.

[1] = IC50 (M) PRP, inhibition of PAF-induced platelet aggregation, PAF challenge 5E-8M
[2] = IC50 (M) PRP, inhibition of PAF-induced platelet aggregation, PAF challenge 1E-6M
[3] = IC50 (M) PRP, inhibition of PAF-induced platelet aggregation, PAF challenge 1E-7M
[4] = PAF challenge 1E-6M, read-out: IC50 (M) PRP, inhibition of PAF-induced platelet aggregation
[5] = PAF challenge 1E-7M, read-out: IC50 (M) PRP, inhibition of PAF-induced platelet aggregation
[6] = PAF challenge 5E-8M, read-out: IC50 (M) PRP, inhibition of PAF-induced platelet aggregation

Chain of PAF receptor (G1TEI7 1-342): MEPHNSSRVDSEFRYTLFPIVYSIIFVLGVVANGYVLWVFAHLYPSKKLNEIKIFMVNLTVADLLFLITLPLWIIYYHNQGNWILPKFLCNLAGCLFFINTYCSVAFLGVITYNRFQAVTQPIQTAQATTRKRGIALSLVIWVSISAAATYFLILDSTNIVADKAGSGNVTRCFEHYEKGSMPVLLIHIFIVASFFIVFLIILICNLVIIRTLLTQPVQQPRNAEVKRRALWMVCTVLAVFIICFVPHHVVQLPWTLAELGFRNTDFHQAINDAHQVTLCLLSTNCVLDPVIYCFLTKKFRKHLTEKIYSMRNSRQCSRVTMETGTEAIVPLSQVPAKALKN

| Compound | IC50 [1] [M] | IC50 [3] [M] | other results |
| --- | --- | --- | --- |
| COC(COCc1ccc(OCc2ccccc2)cc1)COP(=O)([O-])Oc1cccc(C[n+]2ccsc2)c1 (stereo not drawn) [3-[[3-[(Hydroxy[2-methoxy-3-[[4-(phenylmethoxy)phenyl]methoxy]propoxy]phosphinyl]oxy]phenyl]methyl)thiazolium, hydroxide, inner salt] | 0.0004 |  |  |
| CCCCCCCCCCCCCCCCCCNC(=O)OCC(COP(=O)([O-])Oc1cccc(C[N+](C)(C)C)c1)OC (stereo not drawn) [3-[(1-(Hydroxy-4-methoxy-7-oxo-2,6-dioxa-8-aza-1-phosphahexacosyl)oxy]- --N, --N, --N-trimethylbenzenemethanaminium, hydroxide, inner salt, P-oxide] | 0.0001 |  |  |
| C=C(C)COC(COCCCCCCCCCCCCCCCC)COP(=O)([O-])Oc1cccc(C[n+]2ccsc2)c1 (stereo not drawn) [3-[[3-[[[3-(Hexadecyloxy)-2-[(2-methyl-2-propenyl)oxy]propoxy]hydroxyphosphinyl]oxy]phenyl]methyl]thiazolium, hydroxide, inner salt] | 2.1e-06 | 2.6e-06 | IC50 [2]: 3.9e-05 M |
| CCCCCCCCCCCCOc1cccc(OCC(COP(=O)([O-])Oc2cccc(C[n+]3csc(CCO)c3C)c2)OC)c1C (stereo not drawn) [3-[[3-[[[3-[3-(Dodecyloxy)-2-methyl-phenoxy]-2-methoxypropoxy]hydroxyphosphinyl]oxy]phenyl]methyl)-5-(2-hydroxyetbyl)-4-methylthiazolium, hydroxide, inner salt] | 1.7e-05 |  |  |
| CCCCCCCCCCCCCCCCCCOP(=O)([O-])Oc1cccc(C[n+]2ccccc2)c1 [1-[[3-[[Hydroxy(octadecyloxy)phosphinyl]oxy]phenyl]methyl]pyridinium, hydroxide, inner salt] | 4.2e-05 |  |  |
| CCCCCCCCCCCCCCCCOCC(COP(=O)(O)Oc1cccc(C[P+](c2ccccc2)(c2ccccc2)c2ccccc2)c1)OC (stereo not drawn) [[[3-[[[3-(Hexadecyloxy)-2-methoxypropoxy]hydroxyphosphinyl]oxy]phenyl]-methyl]triphenylphosphonium, bromide] | 1.4e-05 |  |  |
| CCCCCCCCCCCCCCCCCCOP(=O)([O-])Oc1cccc(C[n+]2ccsc2)c1 [3-[[3-[[Hydroxy(octadecyloxy)phosphinyl]oxy]phenyl]methyl]thiazolium, hydrozide, inner salt] | 2.2e-05 |  |  |
| CCCCCCCCCCCCCCCCOCC(COC(=O)c1cccc(C[n+]2ccsc2)c1)OC (stereo not drawn) [3-[[3-[[3-(Hexadecyloxy)-2-methoxypropoxy]carbonyl]phenyl]methyl]thiazolium, bromide] |  |  | IC50 [4]: 4.9e-05 M; IC50 [5]: 6.1e-06 M; IC50 [6]: 3.6e-06 M |
| CCCCCCCCCCCCCCCCCCNC(=O)OCC(COP(=O)([O-])Oc1cccc(C[n+]2ccccc2)c1)OC (stereo not drawn) [3-[[3-[(1-Hydroxy-4-methoxy-7-oxo-2,6-dioxa-8-aza-1-phosphahexacosyl)oxy]phenyl]methyl]pyridinium, hydroxide, inner salt, P-oxide] | 4.4e-06 |  |  |
| CCCCCCCCCCCCOc1cccc(OCC(COP(=O)([O-])Oc2cccc(C[n+]3csc(C)c3)c2)OC)c1C (stereo not drawn) [3-[[3-[[[3-[3-(Dodecyloxy]-2-methylphenoxy]-2-methoxypropoxy]hydroxyphosphinyl]oxy]phenyl]methyl]-5-methylthiazolium, hydroxide, inner salt] | 9.3e-07 | 2e-06 | IC50 [2]: 3e-05 M |
| COC(CCCOCc1ccccc1)COP(=O)([O-])Oc1cccc(C[n+]2ccsc2)c1 (stereo not drawn) [3-[[3-[[Hydroxy[[5-(phenylmethoxy)-2-methoxypentyl]oxy]phosphinyl]oxy]-phenyl]methyl]thiazolium, hydroxide, inner salt] | 0.0001 |  |  |
| CCCCCCCCCCCCCCCCOCC(COC(=O)c1cccc(C[n+]2ccccn2)c1)OC (stereo not drawn) [1-[[3-[[3-(Hexadecyloxy)-2-methoxypropoxy]carbonyl]phenyl]methyl]pyridazinium, bromide] |  |  | IC50 [6]: 1.1e-05 M |
| CCCCCCCCCCCCCCc1cccc(OCC(COP(=O)([O-])Oc2cccc(C[n+]3ccccc3)c2)OC)c1 (stereo not drawn) [1-[[3-[[Hydroxy[2-methoxy-3-(3-tetradecylphenoxy)propoxy]phosphinyl]oxy]phenyl]methyl]pyridinium, hydroxide, inner salt] | 4.1e-06 | 5.4e-06 | IC50 [2]: 5.3e-05 M |
| CCCCCCCCCCCCCCc1cccc(OCC(COP(=O)([O-])Oc2cccc(C[S+](C)C)c2)OC)c1 (stereo not drawn) [[[3-[[Hydroxy-[2-methoxy-3-(3-tetradecylphenoxy]propoxy]phosphinyl]oxy]-phenyl]methyl]dimethylsulfouium, hydroxide, inner salt] | 3.4e-06 | 2.9e-05 |  |
| CCCCCCCCCCCCOc1cccc(OCC(COP(=O)([O-])Oc2cccc(C[n+]3cccc4ccccc43)c2)OC)c1C (stereo not drawn) [1-[[3-[[[3-[3-(Dodecyloxy)-2-methylphenoxy]-2-methoxypropoxy]hydroxyphosphinyl]oxy]phenyl]methyl]quinolinium, hydroxide, inner salt] | 7.3e-05 | 1.2e-05 |  |
| CCCCCCCCCCCCCCCCOCC(COP(=O)([O-])Oc1cccc(C[n+]2ccccc2)c1)OC (stereo not drawn) [1-[[3-[[[3-(Hexadecyloxy)-2-methoxypropoxy]hydroxyphosphinyl]oxy]phenyl]methyl]pyridinium, hydroxide, inner salt] | 5.78e-06 to 6e-06 | 1e-05 | IC50 [2]: 0.00018 M |
| CCCCCCCCCCOCCOCCOCC(COP(=O)([O-])Oc1cccc(C[n+]2ccsc2)c1)OC (stereo not drawn) [3-[[3-[(1-Hydroxy-4-methoxy-2,6,9,12-tetraoxa-l-phosphadocos-l-yl)oxy]-phenyl]methyl]thiazolium, hydroxide, inner salt, P-oxide] | 8.3e-06 |  |  |
| CCCCCCCCCCCCCCCCCC(=O)NCC(COCCCCCCCCCCCCCCCC)COP(=O)([O-])Oc1cccc(C[n+]2ccsc2)c1 (stereo not drawn) [3-[[3-[[[(2-[(Hexadecyloxy)methyl]-3-[(1-oxooctadecyl)amino]propoxy]hydroxy-phosphinyl]oxy]phenyl]methyl]thiazolium, hydroxide, inner salt] | 4.8e-05 | 0.00013 |  |
| CCCCCCCCCCCCCCCCOCC(COCc1cccc(C[n+]2ccsc2)c1)OC (stereo not drawn) [3-[[3-[[3-(Hexadecyloxy)-2-methoxypropoxy]methyl]phenyl]methyl]thiazolium bromide] |  |  | IC50 [4]: 2.6e-05 M; IC50 [5]: 3.7e-06 M; IC50 [6]: 1.3e-06 M |
| CCCCCCCCCCCCOc1cccc(OCC(COP(=O)([O-])Oc2cccc(C[n+]3ccccc3)c2)OC)c1C (stereo not drawn) [1-[[3-[[[3-[3-(Dodecyloxy)-2-methylphenoxy]-2-methoxypropoxy]hydroxyphosphinyl]oxy]phenyl]methyl]pyridinium, hydroxide, inner salt] | 1.7e-07 |  |  |
| C=C(C)COC(COCCCCCCCCCCCCCCCC)COP(=O)([O-])Oc1cccc(C[N+](C)(C)C)c1 (stereo not drawn) [3-[[[3-(Hexadecyloxy)-2[(2-methyl-2-propeny)oxy]propoxy]hydroxyphosphinyl]-oxy]- --N, --N, --N-trimethylbenzenemethanaminium, hydioxide, inner salt] |  | 4.8e-05 |  |
| COC(COCCCCCCCCOc1ccc(-c2ccccc2)cc1)COP(=O)([O-])Oc1cccc(C[n+]2ccsc2)c1 (stereo not drawn) [3-[[3-[[[3-[[8-([1,1'-Biphenyl]-4-yloxy)octyl]-oxy]-2-methyoxypropoxy]hydroxyphosphinyl]-oxy]phenyl]methyl]thiazolium, hydroxide, inner salt] |  | 2.3e-06 |  |
| CCCCCCCCCCCCCCCCOCC(COC(=O)c1cccc(C[N+](C)(C)C)c1)OC (stereo not drawn) [3-[[3-(Hexadecyloxy)-2-methoxypropoxy]-carbonyl]- --N, --N, --N-trimethylbenzenemethanaminium, bromide] |  |  | IC50 [5]: 3e-05 M; IC50 [6]: 3.1e-05 M |
